{"source": "paper PMC9505425", "about": "“Targeting of the Mitochondrial TET1 Protein by Pyrrolo[3,2-b]pyrrole Chelators” (International Journal of Molecular Sciences, 2022)", "key": {"BT-20 cells": {"test_system": "BT-20 cells", "assay": "MTT cytotoxicity assay, BT-20", "assay_type": "cell-based, human", "experimental": "(§1) The effects of the tested compounds 1–6 on HF-P4, U-118 MG, H1299, BT-20, and Caov-3 cell lines were evaluated by the MTT assay during 48 h treatment (Table 2 and Tables S2–S31). In all tested compounds, we recognized a difference in cytotoxicity between healthy cells (HF-P4) and cancer cell lines (BT-20, Caov-3, and H-1299). […] In the case of ovarian cancer, the authors discovered oncogenic and poor prognosis roles of TET1 in epithelial ovarian carcinoma (EOC). TET1 is believed to demethylate the epigenome and activate numerous oncogenic pathways in EOC. The aforementioned study presents a new mechanism where TET1 contributes to tumor development through collaboration with CK2α [21]. The overexpression of the TET1 protein was also found in triple negative breast cancer and was associated with an activation of PI3K/mTOR pathway and decreased overall survival.\nThe human mammary gland/breast cell line (BT-20), purchased from ATCC (BT-20 (ATCC® HTB-19™), Manassas, VA, USA), was used for the cytotoxicity assay (MTT), and BT-20 cells were cultivated under standard conditions in Eagle’s minimum essential medium (ATCC, Manassas, VA, USA) supplemented with 10% FBS and streptomycin (100 μg/mL) at 37 °C at a 5% CO2 atmosphere.\n(§2) For the cytotoxicity assay, we used the following cell lines: human glioblastoma cell line U118-MG, human mammary gland/breast cell line BT-20, human ovary adenocarcinoma cell line Caov-3, and non-small-cell lung carcinoma H-1299. As previously mentioned, these cell lines contain a high level of the TET1 protein, which corresponds to a lower overall survival. In addition to these cell cultures, we used the human dermal fibroblast cell line HF-P4 as a healthy control. Determination of cytotoxicity was performed using the MTT [3-(4,5-dimethylthiazol-2-yl)-2,5-diphenyltetrazolium bromide] colorimetric assay. Viable cells from each cell line were cultured in 96-well plates (VWR, Stříbrná Skalice, Czech Republic) at a density of 1.0 × 10^5 cells per well and allowed to grow for 24 h in 200 μL of recommended medium. After a 1-day incubation, the medium was replaced with solutions of compounds 1–6 at concentration ranges of 0.1–20 μM. Each concentration was measured four times within one test, and the entire test was repeated three times. Tested compounds 1–6 were dissolved in DMSO and then diluted with corresponding medium to a final volume of 200 μL (maximum 1% DMSO). After 48 h exposure, cells were treated with 175 μL of MTT solution (P-LAB, Prague, Czech Republic) for 2 h. In the next step, MTT solution was removed, and 125 μL of DMSO (Penta, Prague, Czech Republic) was added to solubilize dark crystals of formazan formed in intact cells, and absorbance was measured at 570 nm by the enzyme-linked immunoabsorbent assay reader Infinite® 200 PRO (Tecan, Männedorf, Switzerland). The final DMSO concentration was smaller than 1% (v/v). The absorbance of untreated cells was considered 100%, and IC50 values were calculated by the GraphPad Prism 8 software. As a parameter for cytotoxicity, we used a concentration that inhibits 50% of cell growth (IC50)."}, "Caov-3 cells": {"test_system": "Caov-3 cells", "assay": "MTT cytotoxicity assay, Caov-3", "assay_type": "cell-based, human", "experimental": "as §1\nThe human ovary adenocarcinoma cell line (Caov-3), purchased from ATCC (Caov-3 (ATCC® HTB-75™), Manassas, VA, USA), was used for the cytotoxicity assay (MTT). Caov-3 cells were cultivated under standard conditions in Dulbecco’s modified Eagle’s medium (ATCC, Manassas, VA, USA) supplemented with 10% FBS and streptomycin (100 μg/mL) at 37 °C at a 5% CO2 atmosphere.\nas §2"}}, "note": "Where “and” joins values, the source holds several entries; their conditions need not be identical. Equal values may be shown once."}
{"smiles": "Cc1ccc(-n2c(-c3ccc(C(=O)NN)cc3)cc3c2cc(-c2ccc(C(=O)NN)cc2)n3-c2ccc(C)cc2)cc1", "note": "[Compound 1]", "values": [{"measurement": "Cell viability %", "setting": "BT-20 cells; BT-20, 100 nM, 48 h, repeats, 0.1 µM", "value": "100.0252% and 99.53%"}, {"measurement": "Cell viability %", "setting": "BT-20 cells; BT-20, 500 nM, 48 h, repeats, 0.5 µM", "value": "106.1555% and 91.85%"}, {"measurement": "Cell viability %", "setting": "BT-20 cells; BT-20, 750 nM, 48 h, repeats, 0.75 µM", "value": "98.6% and 95.52%"}, {"measurement": "Cell viability %", "setting": "BT-20 cells; BT-20, 1 uM, 48 h, repeats, 1 µM", "value": "98.92% and 100.049%"}, {"measurement": "Cell viability %", "setting": "BT-20 cells; BT-20, 2.5 uM, 48 h, repeats, 2.5 µM", "value": "55.65% and 54.6523%"}, {"measurement": "Cell viability %", "setting": "BT-20 cells; BT-20, 5 uM, 48 h, repeats, 5 µM", "value": "56.31% and 56.39%"}, {"measurement": "Cell viability %", "setting": "BT-20 cells; BT-20, 7.5 uM, 48 h, repeats, 7.5 µM", "value": "50.1262% and 42.238%"}, {"measurement": "Cell viability %", "setting": "BT-20 cells; BT-20, 10 uM, 48 h, repeats, 10 µM", "value": "44.0939% and 37.78%"}, {"measurement": "Cell viability %", "setting": "BT-20 cells; BT-20, 15 uM, 48 h, repeats, 15 µM", "value": "32.99% and 30.02%"}, {"measurement": "Cell viability %", "setting": "BT-20 cells; BT-20, 20 uM, 48 h, repeats, 20 µM", "value": "18.85% and 15.23%"}, {"measurement": "viability at 0.1 µM", "setting": "BT-20 cells; Homo sapiens, BT-20, 48 h, BT-20, 100 nM, repeats, read-out: Cell viability %", "value": 102, "unit": "%"}, {"measurement": "viability at 0.5 µM", "setting": "BT-20 cells; Homo sapiens, BT-20, 48 h, BT-20, 500 nM, repeats, read-out: Cell viability %", "value": 87.8, "unit": "%"}, {"measurement": "viability at 0.75 µM", "setting": "BT-20 cells; Homo sapiens, BT-20, 48 h, BT-20, 750 nM, repeats, read-out: Cell viability %", "value": 91.2, "unit": "%"}, {"measurement": "viability at 1 µM", "setting": "BT-20 cells; Homo sapiens, BT-20, 48 h, BT-20, 1 uM, repeats, read-out: Cell viability %", "value": 103, "unit": "%"}, {"measurement": "viability at 2.5 µM", "setting": "BT-20 cells; Homo sapiens, BT-20, 48 h, BT-20, 2.5 uM, repeats, read-out: Cell viability %", "value": 69.2, "unit": "%"}, {"measurement": "viability at 5 µM", "setting": "BT-20 cells; Homo sapiens, BT-20, 48 h, BT-20, 5 uM, repeats, read-out: Cell viability %", "value": 56.8, "unit": "%"}, {"measurement": "viability at 7.5 µM", "setting": "BT-20 cells; Homo sapiens, BT-20, 48 h, BT-20, 7.5 uM, repeats, read-out: Cell viability %", "value": 41.2, "unit": "%"}, {"measurement": "viability at 10 µM", "setting": "BT-20 cells; Homo sapiens, BT-20, 48 h, BT-20, 10 uM, repeats, read-out: Cell viability %", "value": 41.5, "unit": "%"}, {"measurement": "viability at 15 µM", "setting": "BT-20 cells; Homo sapiens, BT-20, 48 h, BT-20, 15 uM, repeats, read-out: Cell viability %", "value": 33.5, "unit": "%"}, {"measurement": "viability at 20 µM", "setting": "BT-20 cells; Homo sapiens, BT-20, 48 h, BT-20, 20 uM, repeats, read-out: Cell viability %", "value": 19.8, "unit": "%"}, {"measurement": "IC50", "setting": "BT-20 cells; Homo sapiens, BT-20, MTT, 48 h", "value": 5.94, "unit": "µM"}, {"measurement": "melting point", "value": "312 to 313", "unit": "°C"}, {"measurement": "Cell viability %", "setting": "Caov-3 cells; Caov-3, 100 nM, 48 h, repeats, 0.1 µM", "value": "80.61% and 94.8%"}, {"measurement": "Cell viability %", "setting": "Caov-3 cells; Caov-3, 500 nM, 48 h, repeats, 0.5 µM", "value": "91.36% and 100.9421% and 76.35%"}, {"measurement": "Cell viability %", "setting": "Caov-3 cells; Caov-3, 750 nM, 48 h, repeats, 0.75 µM", "value": "95.41% and 77.67%"}, {"measurement": "Cell viability %", "setting": "Caov-3 cells; Caov-3, 1 uM, 48 h, repeats, 1 µM", "value": "71.07% and 89.66%"}, {"measurement": "Cell viability %", "setting": "Caov-3 cells; Caov-3, 2.5 uM, 48 h, repeats, 2.5 µM", "value": "71.79% and 55.75%"}, {"measurement": "Cell viability %", "setting": "Caov-3 cells; Caov-3, 5 uM, 48 h, repeats, 5 µM", "value": "48.77% and 58.08%"}, {"measurement": "Cell viability %", "setting": "Caov-3 cells; Caov-3, 7.5 uM, 48 h, repeats, 7.5 µM", "value": "51.68% and 65.52%"}, {"measurement": "Cell viability %", "setting": "Caov-3 cells; Caov-3, 10 uM, 48 h, repeats, 10 µM", "value": "53.56% and 43.67%"}, {"measurement": "Cell viability %", "setting": "Caov-3 cells; Caov-3, 15 uM, 48 h, repeats, 15 µM", "value": "35.1% and 41.9%"}, {"measurement": "Cell viability %", "setting": "Caov-3 cells; Caov-3, 20 uM, 48 h, repeats, 20 µM", "value": "35.73% and 39.69%"}, {"measurement": "viability at 0.1 µM", "setting": "Caov-3 cells; Homo sapiens, Caov-3, 48 h, Caov-3, 100 nM, repeats, read-out: Cell viability %", "value": 97.9, "unit": "%"}, {"measurement": "viability at 0.75 µM", "setting": "Caov-3 cells; Homo sapiens, Caov-3, 48 h, Caov-3, 750 nM, repeats, read-out: Cell viability %", "value": 78.5, "unit": "%"}, {"measurement": "viability at 1 µM", "setting": "Caov-3 cells; Homo sapiens, Caov-3, 48 h, Caov-3, 1 uM, repeats, read-out: Cell viability %", "value": 81.2, "unit": "%"}, {"measurement": "viability at 2.5 µM", "setting": "Caov-3 cells; Homo sapiens, Caov-3, 48 h, Caov-3, 2.5 uM, repeats, read-out: Cell viability %", "value": 55.9, "unit": "%"}, {"measurement": "viability at 5 µM", "setting": "Caov-3 cells; Homo sapiens, Caov-3, 48 h, Caov-3, 5 uM, repeats, read-out: Cell viability %", "value": 50.9, "unit": "%"}, {"measurement": "viability at 7.5 µM", "setting": "Caov-3 cells; Homo sapiens, Caov-3, 48 h, Caov-3, 7.5 uM, repeats, read-out: Cell viability %", "value": 56.4, "unit": "%"}, {"measurement": "viability at 10 µM", "setting": "Caov-3 cells; Homo sapiens, Caov-3, 48 h, Caov-3, 10 uM, repeats, read-out: Cell viability %", "value": 45.1, "unit": "%"}, {"measurement": "viability at 15 µM", "setting": "Caov-3 cells; Homo sapiens, Caov-3, 48 h, Caov-3, 15 uM, repeats, read-out: Cell viability %", "value": 45.9, "unit": "%"}, {"measurement": "viability at 20 µM", "setting": "Caov-3 cells; Homo sapiens, Caov-3, 48 h, Caov-3, 20 uM, repeats, read-out: Cell viability %", "value": 28.5, "unit": "%"}, {"measurement": "IC50", "setting": "Caov-3 cells; Homo sapiens, Caov-3, MTT, 48 h", "value": 6.48, "unit": "µM"}]}
